Earlier results as cited in US4644054A, “Calcitonin analogs with amino acid substituents at position 31” (priority 1985, dated 1987).
Bridge positions count the residues as written; N and C are the ends. Ends that are not written are not given here.

Conditions: compared with natural human calcitonin

## human calcitonin analog with Serine^29 and Threonine^31substituents: human calcitonin analog with Serine at position 29 and Threonine at position 31 (Maier et al. 1974) (CGNLSTCMLGTYTQDFNKFHTFPQTAIGSGTP; disulfide 1-7; ends not checked; UniProt P01258 85-116, looked up, variant V29S A31T)
  activity relative to natural human calcitonin: five times more active

## Salmon 1 calcitonin
  activity relative to natural human calcitonin: thirty to forty times more active
